Experimental data taken from patent US20230146455A1, “TREATMENT OF INFLAMMATORY DISEASES WITH PEPTIDES AND PHARMACEUTICAL COMPOSITIONS” (Yuyu Pharma, Inc., priority 2020, published 2023).
Several values for one entry are separate records, joined by “and”; a condition that tells them apart may be missing. Equal entries are not always repeated. Where a SMILES comes first, the peptide text is derived from it. [ ]: non-standard residue; d: D form. Hyp = O=C(O)[C@@H]1C[C@@H](O)CN1

System: IL-4
Experiment: Example 9 Luminex, LPS hPBMCs: IL-4
Format: cell-based, human
Protocol: Treatment Human PBMCs were pretreated with YY-101, YDE-011 and YDE-043 or reference compound; Xiidra® at various concentration (ranging from 1 nM to 100 uM) for 2 h before stimulation. An equal volume of 0.5% DMSO was used as a vehicle control. Then, the cells were treated with LPS at 5 ug/ml. The supernatants from treated cells were harvested at 24 h and placed in a 96 well for Luminex cytokine & chemokine profiling using a Luminex 200 multiplex assay (Luminex; R&D system, USA).
The main study arm with triplicate wells per group in a 24-well plate: • 1. Blank • 2. PBMC: 0.5% DMSO • 3. PBMC+LPS (5 ug/ml) • 4. PBMC+YY-101 100 uM • 5. PBMC+YY-101 10 uM • 6. PBMC+YY-101 1 uM • 7. PBMC+YY-101 0.1 uM • 8. PBMC+YY-101 0.01 uM • 9. PBMC+LPS (5 ug/ml)+Xiidra®100 uM • 10. PBMC+LPS (5 ug/ml)+Xiidra® 10 uM • 11. PBMC+LPS (5 ug/ml)+Xiidra® 1 uM • 12. PBMC+LPS (5 ug/ml)+Xiidra®0.1 uM • 13. PBMC+LPS (5 ug/ml)+Xiidra®0.01 uM • 14. PBMC+LPS (5 ug/ml)+Xiidra®0.001 uM • 15. PBMC+LPS (5 ug/ml)+YY-101 100 uM • 16. PBMC+LPS (5 ug/ml)+YY-101 10 uM • 17. PBMC+LPS (5 ug/ml)+YY-101 1 uM • 18. PBMC+LPS (5 ug/ml)+YY-101 0.1 uM • 19. PBMC+LPS (5 ug/ml)+YY-101 0.01 uM • 20. PBMC+LPS (5 ug/ml)+YY-101 0.001 uM • 21. PBMC+LPS (5 ug/ml)+YDE-011 100 uM • 22. PBMC+LPS (5 ug/ml)+YDE-011 10 uM • 23. PBMC+LPS (5 ug/ml)+YDE-011 1 uM • 24. PBMC+LPS (5 ug/ml)+YDE-011 0.1 uM • 25. PBMC+LPS (5 ug/ml)+YDE-011 0.01 uM • 26. PBMC+LPS (5 ug/ml)+YDE-011 0.001 uM • 27. PBMC+LPS (5 ug/ml)+YDE-043 100 uM • 28. PBMC+LPS (5 ug/ml)+YDE-043 10 uM • 29. PBMC+LPS (5 ug/ml)+YDE-043 1 uM • 30. PBMC+LPS (5 ug/ml)+YDE-043 0.1 uM • 31. PBMC+LPS (5 ug/ml)+YDE-043 0.01 uM • 32. PBMC+LPS (5 ug/ml)+YDE-043 0.001 uM
Multiplex assay was used to measure 30 cytokines and chemokines. The 1:2, 1:10 and 1:200 diluted cell supernatant and serial dilution of the standard were dispensed into a 96 well plate at 50 ul/well. Then, the pre-mixed cocktail of antibody-coated magnetic beads was dispensed at 50 ul/well and incubated at room temperature for 2 h in a horizontal orbital microplate shaker at 800±500 rpm. The beads were washed using a magnetic device to prevent loss. The biotin-antibody was dispensed in 50 ul of each well and incubated at room temperature for 1 h in a shaker at 800±500 rpm. After washing, streptavidin-PE was added at 50 ul/well and incubated at room temperature for 30 min in a shaker under the same conditions. Finally, after washing, wash buffer (100 ul/well) was added to the plate and incubated in a shaker for 2 min. The Luminex™ 200 setting were set according to the manufacturer's protocol. The data was calculated with a standard five-parameter logistic nonlinear regression analysis of the data (xPonent software 4.2, USA). The levels of cytokine/chemokine are normalized to the live cell counts (1×10^5 cells/mL) and presented as concentrations per mL (pg/mL or ng/mL).

[1] = PBMC + LPS(5 ug/ml) + test article 0.001 uM, Mean
[2] = PBMC + LPS(5 ug/ml) + test article 0.001 uM, single replicates
[3] = PBMC + LPS(5 ug/ml) + test article 0.01 uM, Mean
[4] = PBMC + LPS(5 ug/ml) + test article 0.01 uM, single replicates
[5] = PBMC + LPS(5 ug/ml) + test article 0.1 uM, Mean
[6] = PBMC + LPS(5 ug/ml) + test article 0.1 uM, single replicates
[7] = PBMC + LPS(5 ug/ml) + test article 1 uM, Mean
[8] = PBMC + LPS(5 ug/ml) + test article 1 uM, single replicates
[9] = PBMC + LPS(5 ug/ml) + test article 10 uM, Mean
[10] = PBMC + LPS(5 ug/ml) + test article 10 uM, single replicates
[11] = PBMC + LPS(5 ug/ml) + test article 100 uM, Mean
[12] = PBMC + LPS(5 ug/ml) + test article 100 uM, single replicates

CC(C)C[C@H](NC(=O)[C@H](CCC(N)=O)NC(=O)CNC(=O)[C@@H]1C[C@@H](O)CN1)C(=O)NCC(=O)O [YDE-043] (H-[Hyp]GQLG-OH; N-terminus and C-terminus assumed)
Concentration, Bead name: IL-4 [1]: 26.0 pg/mL | MFI, Bead name: IL-4 [1]: 1.0 | conc/live cell, Bead name: IL-4 [1]: 5.2 pg/10^5 | Concentration, Bead name: IL-4 [2]: 26.4 pg/mL and 33.2 pg/mL and 18.4 pg/mL | MFI, Bead name: IL-4 [2]: 1.0 and 2.0 and 0.0 | conc/live cell, Bead name: IL-4 [2]: 6.0 pg/10^5 and 5.5 pg/10^5 and 4.0 pg/10^5 | Concentration, Bead name: IL-4 [3]: 11.3 pg/mL | MFI, Bead name: IL-4 [3]: −0.7 | conc/live cell, Bead name: IL-4 [3]: 2.2 pg/10^5 | Concentration, Bead name: IL-4 [4]: 7.7 pg/ml (2×) and 18.4 pg/ml | MFI, Bead name: IL-4 [4]: −1.0 (2×) and 0.0 | conc/live cell, Bead name: IL-4 [4]: 1.7 pg/10^5 and 1.2 pg/10^5 and 3.7 pg/10^5 | Concentration, Bead name: IL-4 [5]: 17.5 pg/mL | MFI, Bead name: IL-4 [5]: 0.0 | conc/live cell, Bead name: IL-4 [5]: 3.3 pg/10^5 | Concentration, Bead name: IL-4 [6]: 26.4 pg/mL and 18.4 pg/mL and 7.7 pg/mL | MFI, Bead name: IL-4 [6]: 1.0 and 0.0 and −1.0 | conc/live cell, Bead name: IL-4 [6]: 5.3 pg/10^5 and 3.3 pg/10^5 and 1.4 pg/10^5 | Concentration, Bead name: IL-4 [7]: 26.4 pg/mL | MFI, Bead name: IL-4 [7]: 0.2 | conc/live cell, Bead name: IL-4 [7]: 3.5 pg/10^5 | Concentration, Bead name: IL-4 [8]: 26.4 pg/mL | MFI, Bead name: IL-4 [8]: −1.5 and 1.0 (2×) | conc/live cell, Bead name: IL-4 [8]: 0.0 pg/10^5 and 5.5 pg/10^5 and 5.0 pg/10^5 | Concentration, Bead name: IL-4 [9]: 14.8 pg/mL | MFI, Bead name: IL-4 [9]: −0.3 | conc/live cell, Bead name: IL-4 [9]: 2.7 pg/10^5 | Concentration, Bead name: IL-4 [10]: 18.4 pg/ml (2×) and 7.7 pg/ml | MFI, Bead name: IL-4 [10]: 0.0 (2×) and −1.0 | conc/live cell, Bead name: IL-4 [10]: 3.5 pg/10^5 and 1.4 pg/10^5 and 3.3 pg/10^5 | Concentration, Bead name: IL-4 [11]: 7.7 pg/mL | MFI, Bead name: IL-4 [11]: −1.0 | conc/live cell, Bead name: IL-4 [11]: 1.2 pg/10^5 | Concentration, Bead name: IL-4 [12]: 7.7 pg/mL | MFI, Bead name: IL-4 [12]: −1.0 | conc/live cell, Bead name: IL-4 [12]: 1.2 pg/10^5
